Assay: wn = mass fraction of the nth substance listed
Settings: Gas, Burnett expansion method

FCC(F)(F)F [1,1,1,2-tetrafluoroethane] + CCC
Settings | mass density [kg/m3]
312.17 K, 679.1 kPa, w2 = 0.45 | 19.022
312.17 K, 873 kPa, w2 = 0.45 | 25.3381
312.18 K, 403.4 kPa, w2 = 0.45 | 10.7201
312.18 K, 524.7 kPa, w2 = 0.45 | 14.2797
312.19 K, 309.2 kPa, w2 = 0.45 | 8.04778
312.23 K, 1062.8 kPa, w2 = 0.5 | 30.8635
312.24 K, 293.9 kPa, w2 = 0.5 | 7.35936
312.24 K, 386.2 kPa, w2 = 0.5 | 9.80302
312.24 K, 650.6 kPa, w2 = 0.5 | 17.3937
312.24 K, 835.8 kPa, w2 = 0.5 | 23.1694
312.24 K, 1330.8 kPa, w2 = 0.5 | 41.1106
312.25 K, 502.5 kPa, w2 = 0.5 | 13.0579
315.01 K, 615.4 kPa, w2 = 0.65 | 14.1721
315.01 K, 795.5 kPa, w2 = 0.65 | 18.8451
315.01 K, 1017.2 kPa, w2 = 0.65 | 25.0585
315.01 K, 1280.7 kPa, w2 = 0.65 | 33.3212
315.02 K, 274.4 kPa, w2 = 0.65 | 6.0676
315.02 K, 360.8 kPa, w2 = 0.65 | 8.015
315.02 K, 472.6 kPa, w2 = 0.65 | 10.6578
315.06 K, 855 kPa, w2 = 0.55 | 22.0047
315.06 K, 1090.2 kPa, w2 = 0.55 | 29.2605
315.06 K, 1366.4 kPa, w2 = 0.55 | 38.9077
315.07 K, 509.9 kPa, w2 = 0.55 | 12.4444
315.07 K, 663.2 kPa, w2 = 0.55 | 16.5479
315.08 K, 389.6 kPa, w2 = 0.55 | 9.3584
315.09 K, 296.5 kPa, w2 = 0.55 | 7.0377
315.09 K, 1068.9 kPa, w2 = 0.6 | 27.4868
315.1 K, 289.6 kPa, w2 = 0.6 | 6.6116
315.1 K, 498.6 kPa, w2 = 0.6 | 11.6903
315.1 K, 648.9 kPa, w2 = 0.6 | 15.5452
315.1 K, 837.4 kPa, w2 = 0.6 | 20.6708
315.1 K, 1341.8 kPa, w2 = 0.6 | 36.5492
315.11 K, 380.8 kPa, w2 = 0.6 | 8.7915
315.98 K, 1580.4 kPa, w2 = 0.5 | 50.2225
316.02 K, 947.3 kPa, w2 = 0.4 | 28.0242
316.02 K, 1201.7 kPa, w2 = 0.4 | 37.3297
316.03 K, 251.6 kPa, w2 = 0.4 | 6.68246
316.03 K, 331.4 kPa, w2 = 0.4 | 8.9013
316.03 K, 434.8 kPa, w2 = 0.4 | 11.857
316.03 K, 568 kPa, w2 = 0.4 | 15.7941
316.03 K, 737 kPa, w2 = 0.4 | 21.0384
316.03 K, 1496.5 kPa, w2 = 0.4 | 49.7241
316.07 K, 1279.9 kPa, w2 = 0.5 | 37.6931
316.09 K, 1628 kPa, w2 = 0.45 | 55.7253
316.11 K, 1015.3 kPa, w2 = 0.5 | 28.294
316.11 K, 1322.4 kPa, w2 = 0.45 | 41.8324
316.12 K, 496.6 kPa, w2 = 0.45 | 13.2868
316.12 K, 641.4 kPa, w2 = 0.45 | 17.6986
316.12 K, 825.1 kPa, w2 = 0.45 | 23.5754
316.12 K, 1051.5 kPa, w2 = 0.45 | 31.4039
316.13 K, 382.7 kPa, w2 = 0.45 | 9.97465
316.13 K, 614 kPa, w2 = 0.5 | 15.945
316.13 K, 793.6 kPa, w2 = 0.5 | 21.2396
316.14 K, 359.6 kPa, w2 = 0.5 | 8.98623
316.14 K, 471.1 kPa, w2 = 0.5 | 11.9702
319.94 K, 1816.9 kPa, w2 = 0.4 | 64.6378
319.97 K, 1488.2 kPa, w2 = 0.4 | 48.5219
319.98 K, 935.7 kPa, w2 = 0.4 | 27.3455
319.98 K, 1189.8 kPa, w2 = 0.4 | 36.4256
319.99 K, 326.1 kPa, w2 = 0.4 | 8.68561
319.99 K, 428.1 kPa, w2 = 0.4 | 11.5696
319.99 K, 559.5 kPa, w2 = 0.4 | 15.4113
319.99 K, 726.9 kPa, w2 = 0.4 | 20.5286
320 K, 1619.8 kPa, w2 = 0.5 | 49.4434
320.03 K, 1304.5 kPa, w2 = 0.5 | 37.1152
320.05 K, 1030.2 kPa, w2 = 0.5 | 27.8617
320.07 K, 802.1 kPa, w2 = 0.5 | 20.9155
320.08 K, 360.7 kPa, w2 = 0.5 | 8.84905
320.08 K, 473.5 kPa, w2 = 0.5 | 11.7874
320.08 K, 618.5 kPa, w2 = 0.5 | 15.7015
320.08 K, 1320 kPa, w2 = 0.45 | 39.4284
320.08 K, 1636.4 kPa, w2 = 0.45 | 52.5203
320.09 K, 814.3 kPa, w2 = 0.45 | 22.2206
320.09 K, 1044.1 kPa, w2 = 0.45 | 29.5994
320.1 K, 367.3 kPa, w2 = 0.45 | 9.40149
320.1 K, 481.7 kPa, w2 = 0.45 | 12.5232
320.1 K, 628.6 kPa, w2 = 0.45 | 16.6813

Source: the NIST ThermoML archive (doi:10.1016/j.jct.2013.10.031)
